Measured values as given in PubChem BioAssay (NCI).
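Protocol summary: plate cells (96-well), add compound at 5 concentrations, incubate 48 h, interpolate endpoints linearly. Definition used: TGI = concentration required for complete inhibition of growth.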

Tests used:
Experiment in all cases: DTP human tumour cell line panel, 48 h
[1] = tested on: 786-0 renal
[2] = tested on: A498 renal
[3] = tested on: A549 NSCLC
[4] = tested on: ACHN renal
[5] = tested on: BT-549 breast
[6] = tested on: CAKI-1 renal
[7] = tested on: CCRF-CEM leukemia
[8] = tested on: COLO 205 colon
[9] = tested on: DU-145 prostate
[10] = tested on: EKVX NSCLC
[11] = tested on: HCC-2998 colon
[12] = tested on: HCT-116 colon
[13] = tested on: HCT-15 colon
[14] = tested on: HL-60(TB) leukemia
[15] = tested on: HOP-62 NSCLC
[16] = tested on: HOP-92 NSCLC
[17] = tested on: HS 578T breast
[18] = tested on: HT29 colon
[19] = tested on: IGROV1 ovarian
[20] = tested on: K-562 leukemia
[21] = tested on: KM12 colon
[22] = tested on: LOX IMVI melanoma
[23] = tested on: M14 melanoma
[24] = tested on: MALME-3M melanoma
[25] = tested on: MCF7 breast
[26] = tested on: MDA-MB-231 breast
[27] = tested on: MDA-MB-435
[28] = tested on: MDA-N
[29] = tested on: MOLT-4 leukemia
[30] = tested on: NCI-H226 lung
[31] = tested on: NCI-H23 lung
[32] = tested on: NCI-H460 lung
[33] = tested on: NCI-H522 lung
[34] = tested on: NCI/ADR-RES ovarian
[35] = tested on: OVCAR-3 ovarian
[36] = tested on: OVCAR-4 ovarian
[37] = tested on: OVCAR-5 ovarian
[38] = tested on: OVCAR-8 ovarian
[39] = tested on: PC-3 prostate
[40] = tested on: RPMI-8226 leukemia
[41] = tested on: RXF 393 renal
[42] = tested on: SF-268 CNS
[43] = tested on: SF-295 CNS
[44] = tested on: SF-539 CNS
[45] = tested on: SK-MEL-2 melanoma
[46] = tested on: SK-MEL-28 melanoma
[47] = tested on: SK-MEL-5 melanoma
[48] = tested on: SK-OV-3 ovarian
[49] = tested on: SN12C renal
[50] = tested on: SNB-19 CNS
[51] = tested on: SNB-75 CNS
[52] = tested on: SR leukemia
[53] = tested on: SW-620 colon
[54] = tested on: T-47D breast
[55] = tested on: TK-10 renal
[56] = tested on: U251 CNS
[57] = tested on: UACC-257 melanoma
[58] = tested on: UACC-62 melanoma
[59] = tested on: UO-31 renal

Structure (SMILES): COc1ccc2c(-c3ccc(O)cc3)c(Oc3ccccc3)c(=O)oc2c1
- TGI [1]: > 52.1 µM
- TGI [2]: > 62 µM
- TGI [3]: > 43 µM
- TGI [4]: > 85.9 µM
- TGI [5]: > 100 µM
- TGI [6]: > 100 µM
- TGI [7]: > 100 µM
- TGI [8]: > 100 µM
- TGI [9]: > 50.8 µM
- TGI [10]: > 77.8 µM
- TGI [11]: > 69.3 µM
- TGI [12]: > 93.5 µM
- TGI [13]: > 100 µM
- TGI [14]: > 100 µM
- TGI [15]: > 100 µM
- TGI [16]: > 87.8 µM
- TGI [17]: 99.1 µM
- TGI [18]: 98.2 µM
- TGI [19]: > 62.3 µM
- TGI [20]: > 100 µM
- TGI [21]: > 100 µM
- TGI [22]: > 100 µM
- TGI [23]: > 100 µM
- TGI [24]: > 86.3 µM
- TGI [25]: > 100 µM
- TGI [26]: > 100 µM
- TGI [27]: > 100 µM
- TGI [28]: > 100 µM
- TGI [29]: > 100 µM
- TGI [30]: > 87.2 µM
- TGI [31]: > 100 µM
- TGI [32]: > 100 µM
- TGI [33]: > 100 µM
- TGI [34]: > 100 µM
- TGI [35]: > 100 µM
- TGI [36]: > 100 µM
- TGI [37]: > 100 µM
- TGI [38]: > 100 µM
- TGI [39]: > 100 µM
- TGI [40]: > 100 µM
- TGI [41]: > 47.8 µM
- TGI [42]: > 100 µM
- TGI [43]: > 100 µM
- TGI [44]: > 100 µM
- TGI [45]: > 100 µM
- TGI [46]: > 100 µM
- TGI [47]: > 52 µM
- TGI [48]: > 100 µM
- TGI [49]: > 42.1 µM
- TGI [50]: > 53.7 µM
- TGI [51]: > 66.5 µM
- TGI [52]: > 23.4 µM
- TGI [53]: > 100 µM
- TGI [54]: > 100 µM
- TGI [55]: 18.1 µM
- TGI [56]: > 61.5 µM
- TGI [57]: > 100 µM
- TGI [58]: > 100 µM
- TGI [59]: 27.5 µM

Structure (SMILES): CC1=NN(C(=O)CC(=O)Nc2cccc(Cl)c2)C(=O)C1N=Nc1ccc(S(=O)(=O)c2ccc(N=NC3C(=O)N(C(=O)CC(=O)Nc4cccc(Cl)c4)N=C3C)cc2)cc1 (configuration not stated)
- TGI [1]: > 100 µM
- TGI [3]: > 100 µM
- TGI [4]: > 100 µM
- TGI [5]: > 100 µM
- TGI [6]: > 100 µM
- TGI [7]: > 100 µM
- TGI [8]: > 100 µM
- TGI [9]: > 100 µM
- TGI [10]: > 100 µM
- TGI [11]: > 100 µM
- TGI [12]: > 100 µM
- TGI [13]: > 100 µM
- TGI [14]: > 100 µM
- TGI [15]: > 100 µM
- TGI [16]: > 100 µM
- TGI [17]: > 100 µM
- TGI [18]: > 100 µM
- TGI [19]: > 100 µM
- TGI [20]: > 100 µM
- TGI [21]: > 100 µM
- TGI [22]: > 100 µM
- TGI [23]: > 100 µM
- TGI [24]: > 100 µM
- TGI [25]: > 100 µM
- TGI [26]: 52.2 µM
- TGI [27]: > 100 µM
- TGI [28]: > 100 µM
- TGI [29]: > 100 µM
- TGI [30]: > 100 µM
- TGI [31]: > 100 µM
- TGI [32]: > 100 µM
- TGI [33]: > 100 µM
- TGI [34]: > 100 µM
- TGI [35]: > 100 µM
- TGI [36]: > 100 µM
- TGI [37]: > 100 µM
- TGI [38]: > 100 µM
- TGI [39]: > 100 µM
- TGI [40]: > 100 µM
- TGI [41]: > 100 µM
- TGI [42]: > 100 µM
- TGI [43]: > 100 µM
- TGI [44]: 55.6 µM
- TGI [45]: > 100 µM
- TGI [46]: > 100 µM
- TGI [47]: > 100 µM
- TGI [48]: > 100 µM
- TGI [49]: > 100 µM
- TGI [50]: > 100 µM
- TGI [51]: > 100 µM
- TGI [52]: > 100 µM
- TGI [53]: > 100 µM
- TGI [54]: > 100 µM
- TGI [55]: > 100 µM
- TGI [56]: > 100 µM
- TGI [57]: > 100 µM
- TGI [58]: > 100 µM
- TGI [59]: > 100 µM
